For 10 molecules, MIC results are on record in patent publication US3995044A, “Pyridine carboxylic acid amides for mycobacterium infections” (priority 1974, dated 1976).

Common to all, as to experiment: microbe, parasite or virus in culture
What all share (type): cell-based

The test system of test [1] is Mycobacterium tuberculosis INH TSC ETH-res. The conditions noted are these: read-out: MIC, INH TSC ETH-res.
Test [2] has as its system Mycobacterium tuberculosis INH-res. The note with it: read-out: Minimum inhibitory concentration (on egg medium), resistant test strain INH-res.
For test [3] the test system is unchanged. The conditions noted are these: read-out: MIC, INH-res.
For test [4], the system named is Mycobacterium tuberculosis CS-res. The note with it: read-out: MIC, CS-res.
Test [5] relates to Mycobacterium tuberculosis SM-res. The note with it: read-out: MIC, SM-res.
Test [6] has as its system Mycobacterium tuberculosis PAS-res. The note with it: read-out: MIC, PAS-res.
Test [7] deals with Mycobacterium tuberculosis INH-TSC-res. The note with it: read-out: Minimum inhibitory concentration (on egg medium), resistant test strain INH-TSC-res.

Molecules are shown by their SMILES. ≈ marks a conversion by molar mass, not a printed value. Where two headings read alike, the source gives them in different places.

For `O=C(NCc1ccccn1)c1cc([N+](=O)[O-])cc([N+](=O)[O-])c1` [Example 1, N-(pyrid-2-ylmethyl)-3,5-dinitrobenzoic acid amide], the MIC turned out to be 0.8 µg/mL (≈ 2.65 µM) in test [1]; 1 µg/mL (≈ 3.31 µM) in test [2]; 0.8 µg/mL (≈ 2.65 µM) in test [3]; 1.6 µg/mL (≈ 5.29 µM) in test [4]; 1.6 µg/mL (≈ 5.29 µM) in test [5]; 1.6 µg/mL (≈ 5.29 µM) in test [6]. The MIC in test [7] was found to be 1 µg/mL (≈ 3.31 µM).

For the molecule `O=C(NCc1cnc2ccccc2c1)c1cc([N+](=O)[O-])cc([N+](=O)[O-])c1` [Example 9], the MIC in test [1] was found to be 0.03 µg/mL (≈ 0.0852 µM); in test [2], 2 µg/mL (≈ 5.68 µM); in test [3] it was 0.4 µg/mL (≈ 1.14 µM); in test [4], 0.2 µg/mL (≈ 0.568 µM); in test [5], 0.2 µg/mL (≈ 0.568 µM); in test [6], 0.4 µg/mL (≈ 1.14 µM). Further, the MIC in test [7] was found to be 2 µg/mL (≈ 5.68 µM).

For `O=C(NCCc1ccccn1)c1cc([N+](=O)[O-])cc([N+](=O)[O-])c1` [Example 10], the MIC in test [2] is 1 µg/mL (≈ 3.16 µM); in test [7] it was 32 µg/mL (≈ 101 µM).

For the molecule `O=C(NCc1cccnc1)c1cc([N+](=O)[O-])cc([N+](=O)[O-])c1` [Example 12], the MIC in test [2] came to 8 µg/mL (≈ 26.5 µM); in test [7], 32 µg/mL (≈ 106 µM).

For the molecule `O=C(NCc1ccncc1)c1cc([N+](=O)[O-])cc([N+](=O)[O-])c1` [Example 13], the MIC in test [2] and in test [7] was 128 µg/mL (≈ 423 µM) throughout.

In the case of `Cc1cccc(CNC(=O)c2cc([N+](=O)[O-])cc([N+](=O)[O-])c2)n1` [Example 14], the MIC in test [1] was found to be 0.8 µg/mL (≈ 2.53 µM); in test [3], 0.8 µg/mL (≈ 2.53 µM); in test [4] it was 1.6 µg/mL (≈ 5.06 µM); in test [5] it was 1.6 µg/mL (≈ 5.06 µM); in test [6], 1.6 µg/mL (≈ 5.06 µM).

Turning to `O=C(NCc1ccc2ccccc2n1)c1cc([N+](=O)[O-])cc([N+](=O)[O-])c1` [Example 15], the MIC was determined as 0.05 µg/mL (≈ 0.142 µM) in test [1]; 1 µg/mL (≈ 2.84 µM) in test [2]; 0.1 µg/mL (≈ 0.284 µM) in test [3]; 0.2 µg/mL (≈ 0.568 µM) in test [4]; 0.1 µg/mL (≈ 0.284 µM) in test [5]; 0.4 µg/mL (≈ 1.14 µM) in test [6]. In test [7], the MIC was 1 µg/mL (≈ 2.84 µM).

Regarding `O=C(NCC1CCCO1)c1cc([N+](=O)[O-])cc([N+](=O)[O-])c1` (stereo not shown) [Example 20], the MIC in test [1], in test [3], in test [4], in test [5] and in test [6] was 1.6 µg/mL (≈ 5.42 µM) each time.

For the molecule `O=C(NCC1CCC=CO1)c1cc([N+](=O)[O-])cc([N+](=O)[O-])c1` (stereo not shown) [Example 22], the MIC in test [1] worked out at 0.2 µg/mL (≈ 0.651 µM); in test [3], 0.1 µg/mL (≈ 0.325 µM); in test [4] it was 0.4 µg/mL (≈ 1.3 µM); in test [5], 0.4 µg/mL (≈ 1.3 µM); in test [6] it was 0.8 µg/mL (≈ 2.6 µM).

For the molecule `CC(NC(=O)c1cc([N+](=O)[O-])cc([N+](=O)[O-])c1)c1ccccn1` (stereo not shown) [Example 29], the MIC came to 0.8 µg/mL (≈ 2.53 µM) in test [1]; 2 µg/mL (≈ 6.32 µM) in test [2]; 1.6 µg/mL (≈ 5.06 µM) in test [3]; 1.6 µg/mL (≈ 5.06 µM) in test [4]; 0.8 µg/mL (≈ 2.53 µM) in test [5]; 1.6 µg/mL (≈ 5.06 µM) in test [6]. For the same molecule, the MIC in test [7] amounted to 2 µg/mL (≈ 6.32 µM).
